Measured values: patent publication US8178490B2, “Polybasic bacterial efflux pump inhibitors and therapeutic uses thereof” (priority 2007, dated 2012)

What was measured:
[1] = tested on: Klebsiella pneumoniae KPM1004 overexpressing the AcrABTolC efflux pump; experiment: microbe, parasite or virus in culture; type: cell-based; details: lowest inhibitor concentration giving antibacterial activity with azithromycin at 1/16 of its MIC; K. pneumoniae KPM1004
Source text: (§1) EPI activity is defined as concentration of an EPI compound that is necessary to achieve ½ of a maximum theoretical effect in increase of antibiotic susceptibility due to efflux inhibition. The maximum theoretical effect, Emax, is defined as a ratio of antibacterial activity of antibiotics (minimal inhibitory concentration, MIC) of pump overexpressing vs. pump lacking strains. […] The strain PAM1723, overexpressing the MexABOprM efflux pump was used as a test strain. […] Azithromycin was used as test antibiotic to assess the EPI activity in Klebsiella pneumoniae. The strain KPM1004 overexpressing the AcrABTolC efflux pump was used as a test strain. […] Thus, EPI activity, that is assessed in K. pneumoniae, is a concentration of an EPI compound that is necessary to increase susceptibility to azithromicin of KPM1004 sixteen fold.
(§2) The EPI activity of the test compounds was assessed by the checkerboard assay (Antimicrobial Combinations, Antibiotics in Laboratory Medicine, Ed. Victor Lorian, M.D., Fourth edition, 1996, pp 333338, which is incorporated herein by reference in its entirety) using a broth microdilution method performed as recommended by the NCCLS (National Committee for Clinical Laboratory Standards (NCCLS), 1997, Methods for Dilution of Antimicrobial Susceptibility Tests for Bacteria That Grow Aerobically, Fourth Edition; Approved Standard. NCCLS Document M7A4, Vol 17 No. 2, which is incorporated herein by reference in its entirety). […] All EPI compounds were readily soluble in water and stock solutions were prepared at a final concentration of 10 mg/ml. Stock solutions were further diluted, according to the needs of the particular assay, in Mueller Hinton Broth (MHB). Stock solution was stored at −80° C. The checkerboard assay was performed in microtiter plates. […] EPIs were diluted in the axis, each row containing a single concentration of an EPI. […] The assay was performed in MHB with a final bacterial (PAM1723 or […]) inoculum of 5 times 10^5 CFU/ml (from an early log phase culture). Microtiter plates were incubated during 20 h at 35° C. and were read using a microtiter plate reader (Molecular Devices) at 650 nm as well as visual observation using a microtiter plate reading mirror.
(§3) Azithromycin potentiation activities of selected inhibitors for K. pneumoniae are reported as MPC16 values.

[2] = tested on: P. aeruginosa PAM1723, overexpressing the MexABOprM efflux pump; type: cell-based, Pseudomonas aeruginosa; details: lowest inhibitor concentration giving antibacterial activity with levofloxacin at 1/8 of its MIC
Source text: as §1, §2, §3

[3] = Rat serum pharmacokinetics after 1.5-hour IV infusion; type: in vivo; details: two-compartment model; for Cmax / clearance: 1.5-hour IV infusion in 0.9% saline, dose (mg/kg) differs per compound; for clearance: read-out: Clearance (free drug clearance) (converted)
Experimental: In the experiment depicted in Table 7, above, rat serum pharmacokinetics of selected inhibitor compounds was evaluated after 1.5-hour IV infusion of 1.5 ml solution of corresponding efflux pump inhibitor in 0.9% saline. Depending on the concentration used the total infused dose was 2, 5, 10 or 20 mg/kg. A two-compartment model was used to fit the data and calculate PK parameters.

NCCN(CCN)C(=O)CC[C@H](N)C(=O)N/C(=C/c1ccc(C(F)(F)F)cc1)C(=O)Nc1cnc2ccccc2c1 [Compound 4, 3-[(1S)-3-[bis(2-azaniumylethyl)carbamoyl]-1-{[(1E)-1-carbamoyl-2-[4-(trifluoromethyl)phenyl]eth-1-en-1-yl]carbamoyl}propan-1-aminium]quinolin-1-ium tetrachloride]
MPC16 (μg/mL) Azithromycin, KPM1004) [1]: 1.25 µg/mL
MPC8 (μg/mL) (Levofloxacin, PAM1723) [2]: 1.25 µg/mL

Cl.Cl.Cl.Cl.NCCN(CCN)C(=S)C(C[C@H](N)C(=O)N[C@H](Cc1ccc(C(F)(F)F)cc1)C(N)=O)c1cnc2ccccc2c1 (stereo partly drawn) [Compound 12, 3-[(1S)-3-[bis(2-azaniumylethyl)carbamothioyl]-1-{[(1R)-1-carbamoyl-2-[4-(trifluoromethyl)phenyl]ethyl]carbamoyl}propan-1-aminium]quinolin-1-ium tetrachloride]
MPC16 (μg/mL) Azithromycin, KPM1004) [1]: 1.25 µg/mL
MPC8 (μg/mL) (Levofloxacin, PAM1723) [2]: 1.25 µg/mL

3-[(1S)-3-[bis(2-azaniumylethyl)carbamoyl]-1-{[(1S)-1-carbamoyl-2-[4-(trifluoromethyl)phenyl]ethyl]carbamoyl}propan-1-aminium]quinolin-1-ium tetrachloride [Compound 28]
MPC16 (μg/mL) Azithromycin, KPM1004) [1]: 1.25 µg/mL
MPC8 (μg/mL) (Levofloxacin, PAM1723) [2]: 1.25 µg/mL

Cl.Cl.Cl.Cl.Cl.NCCNCCN(CCN)C(=O)C[C@H](N)C(=O)N[C@@H](CCc1ccccc1)C(=O)Nc1cnc2ccccc2c1 [Compound 188, 3-[(2S)-2-[(1S)-2-[(2-azaniumylethyl)({2-[(2-azaniumylethyl)azaniumyl]ethyl})carbamoyl]-1-formamidoethan-1-aminium]-4-phenylbutanamido]quinolin-1-ium pentachloride]
MPC16 (μg/mL) Azithromycin, KPM1004) [1]: 1.25 µg/mL
MPC8 (μg/mL) (Levofloxacin, PAM1723) [2]: 0.6 µg/mL

Cl.Cl.Cl.Cl.NCCN(CCN)C(=O)C[C@H](Nc1ccc2ncccc2c1)C(=O)N[C@@H](CC1CCCCC1)C(N)=O [Compound 13, 6-[(1S)-2-[bis(2-azaniumylethyl)carbamoyl]-1-{[(1S)-1-carbamoyl-2-cyclohexylethyl]carbamoyl}ethan-1-aminium]quinolin-1-ium tetrachloride]
MPC8 (μg/mL) (Levofloxacin, PAM1723) [2]: 1.25 µg/mL

3-[(1S)-3-[bis(2-azaniumylethyl)carbamoyl]-1-{[(1S)-1-carbamoyl-2-[4-(trifluoromethyl)phenyl]ethyl](methyl)carbamoyl}propan-1-aminium]quinolin-1-ium tetrachloride [Compound 5]
MPC8 (μg/mL) (Levofloxacin, PAM1723) [2]: 0.6 µg/mL

3-[(1S)-3-[bis(2-azaniumylethyl)carbamoyl]-1-{[(1R)-1-carbamoyl-2-[4-(trifluoromethyl)phenyl]ethyl]carbamoyl}propan-1-aminium]quinolin-1-ium tetrachloride [Compound 1]
MPC16 (μg/mL) Azithromycin, KPM1004) [1]: 0.6 µg/mL
MPC8 (μg/mL) (Levofloxacin, PAM1723) [2]: 0.3 µg/mL

NCCN(CCN)C(=O)C[C@H](N)C(=O)N[C@@H](CCc1ccccc1)C(=O)Nc1cnc2ccccc2c1 [Compound 2, 3-[(1S)-2-[bis(2-azaniumylethyl)carbamoyl]-1-{[(1S)-1-carbamoyl-3-phenylpropyl]carbamoyl}ethan-1-aminium]quinolin-1-ium tetrachloride]
Cmax [3]: 2250 ng/mL
clearance [3]: 217 mL/min/kg
pharmacokinetic profile ([3]; […] IV infusion in 0.9% saline, total dose 2, 5, 10 or 20 mg/kg): particularly attractive pharmacokinetic profiles

Cl.Cl.Cl.Cl.N[C@@H](CCC(=O)N1C[C@H](N)[C@@H](N)C1)C(=O)N[C@H](Cc1ccc(C(F)(F)F)cc1)C(=O)Nc1cnc2ccccc2c1 [Compound 33, 3-[(1S)-1-{[(1R)-1-carbamoyl-2-[4-(trifluoromethyl)phenyl]ethyl]carbamoyl}-4-[(3S,4S)-3,4-diazaniumylpyrrolidin-1-yl]-4-oxobutan-1-aminium]quinolin-1-ium tetrachloride]
Cmax [3]: 3980 ng/mL
clearance [3]: 105 mL/min/kg
